Source: the supplement of paper PMC10307832

What was measured:
Assay in all cases: relative viability (nuclei count vs DMSO), 5 days (fraction); higher = more cells survive
Tipifarnib + Palbociclib = compound: Cn1cncc1[C@@](N)(c1ccc(Cl)cc1)c1ccc2c(c1)c(-c1cccc(Cl)c1)cc(=O)n2C [Tipifarnib] + CC(=O)c1c(C)c2cnc(Nc3ccc(N4CCNCC4)cn3)nc2n(C2CCCC2)c1=O [Palbociclib] (partner 0.5 µM)
Method in brief: (§1)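 For relative viability, nuclei counts in treated wells were divided by those in vehicle wells. Lung cancer cell lines had been pin-tool dosed in 1536-well plates the day after seeding and cultured for 5 days, then fixed and stained in one step (final 0.05% Triton X-100, 1% formaldehyde, 1 ug/ml Hoechst) and imaged at 4×. Doses were one drug alone or a fixed anchor-drug dose plus five library-drug doses (not always all listed) in √10 steps, and values are duplicate-plate medians.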

Tipifarnib + OSI-027 = compound: Cn1cncc1[C@@](N)(c1ccc(Cl)cc1)c1ccc2c(c1)c(-c1cccc(Cl)c1)cc(=O)n2C [Tipifarnib] + COc1cccc2cc(-c3nc([C@H]4CC[C@H](C(=O)O)CC4)n4ncnc(N)c34)[nH]c12 [OSI-027] (partner 0.5 µM)
Method in brief: as §1

Tipifarnib + Foretinib = compound: Cn1cncc1[C@@](N)(c1ccc(Cl)cc1)c1ccc2c(c1)c(-c1cccc(Cl)c1)cc(=O)n2C [Tipifarnib] + COc1cc2c(Oc3ccc(NC(=O)C4(C(=O)Nc5ccc(F)cc5)CC4)cc3F)ccnc2cc1OCCCN1CCOCC1 [Foretinib] (partner 0.25 µM)
Method in brief: as §1

Tipifarnib = compound: Cn1cncc1[C@@](N)(c1ccc(Cl)cc1)c1ccc2c(c1)c(-c1cccc(Cl)c1)cc(=O)n2C [Tipifarnib]
Method in brief: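 A plate was accepted only when its control CV was below 25% and the cells had doubled at least once. Viability is defined from nuclear counts as treated wells divided by vehicle wells, with the median taken across plates. That median covers lung cancer cell lines grown in 1536-well plates, dosed by pinning at five √10-spaced library-drug concentrations, and counted in MetaXpress from 4× Hoechst images after 5 days.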

Row | Cell Line | relative viability (Tipifarnib + Palbociclib; first compound 0.01 µM) | relative viability (Tipifarnib + Palbociclib; first compound 0.03162 µM) | relative viability (Tipifarnib + Palbociclib; first compound 0.1 µM) | relative viability (Tipifarnib + Palbociclib; first compound 0.3162 µM) | relative viability (Tipifarnib + Palbociclib; first compound 1 µM) | relative viability (Tipifarnib + OSI-027; first compound 0.01 µM) | relative viability (Tipifarnib + OSI-027; first compound 0.03162 µM) | relative viability (Tipifarnib + OSI-027; first compound 0.1 µM) | relative viability (Tipifarnib + OSI-027; first compound 0.3162 µM) | relative viability (Tipifarnib + OSI-027; first compound 1 µM) | relative viability (Tipifarnib + Foretinib; first compound 0.01 µM) | relative viability (Tipifarnib + Foretinib; first compound 0.03162 µM) | relative viability (Tipifarnib + Foretinib; first compound 0.1 µM) | relative viability (Tipifarnib + Foretinib; first compound 0.3162 µM) | relative viability (Tipifarnib + Foretinib; first compound 1 µM) | relative viability (Tipifarnib; 0.01 µM) | relative viability (Tipifarnib; 0.03162 µM) | relative viability (Tipifarnib; 0.1 µM) | relative viability (Tipifarnib; 0.3162 µM) | relative viability (Tipifarnib; 1 µM)
1 | HCC-78 | 0.478 | 0.54 | 0.558 | 0.454 | 0.456 | 0.325 | 0.376 | 0.354 | 0.373 | 0.308 | 0.58 | 0.546 | 0.491 | 0.513 | 0.461 | 1 | 0.948 | 0.808 | 0.768 | 0.633
2 | HCC-366 | 0.259 | 0.346 | 0.199 | 0.179 | 0.101 | 1.01 | 0.778 | 0.265 | 0.18 | 0.0734 | 1.04 | 0.995 | 0.586 | 0.631 | 0.121 | 1.06 | 0.939 | 0.781 | 0.541 | 0.0913
3 | HCC-827 | 0.455 | 0.495 | 0.472 | 0.349 | 0.439 | 0.901 | 0.809 | 0.687 | 0.435 | 0.388 | 1.06 | 1.05 | 0.741 | 0.63 | 0.568 | 1.06 | 0.975 | 0.787 | 0.65 | 0.584
4 | HOP-62 | 0.425 | 0.33 | 0.268 | 0.188 | 0.191 | 0.639 | 0.382 | 0.33 | 0.263 | 0.317 | 0.809 | 0.671 | 0.464 | 0.305 | 0.542 | 0.833 | 0.57 | 0.482 | 0.333 | 0.454
5 | IA-LM | – | – | – | – | – | – | – | – | – | – | 0.905 | 0.55 | 0.47 | 0.299 | 0.33 | 0.426 | 0.529 | 0.376 | 0.185 | 0.184
6 | LC-2-ad | 0.464 | 0.439 | 0.442 | 0.336 | 0.38 | 0.765 | 0.755 | 0.522 | 0.499 | 0.438 | 0.968 | 0.896 | 0.807 | 0.609 | 0.657 | 0.925 | 0.783 | 0.636 | 0.614 | 0.403
7 | LCLC-97TM1 | 0.222 | 0.154 | 0.202 | 0.202 | 0.236 | 0.402 | 0.409 | 0.358 | 0.286 | 0.22 | 1.03 | 0.852 | 0.898 | 0.802 | 0.685 | 0.98 | 0.707 | 0.878 | 0.703 | 0.19
8 | LCLC-103H | 0.483 | 0.384 | 0.491 | 0.411 | 0.571 | 0.383 | 0.445 | 0.372 | 0.363 | 0.31 | 0.865 | 0.869 | 0.59 | 0.548 | 0.418 | 1.06 | 1.04 | 0.927 | 0.817 | 0.756
9 | LK-2 | 0.586 | 0.543 | 0.481 | 0.474 | 0.42 | 0.183 | 0.193 | 0.195 | 0.165 | 0.164 | 1.15 | 1.02 | 1.03 | 0.578 | 0.726 | 1.03 | 0.857 | 0.809 | 0.615 | 0.607
10 | LOU-NH91 | 0.494 | 0.516 | 0.592 | 0.541 | 0.58 | 0.698 | 0.589 | 0.5 | 0.485 | 0.467 | 0.943 | 1 | 0.83 | 0.695 | 0.693 | 0.912 | 0.841 | 0.908 | 0.771 | 0.558
11 | LU99A | 0.359 | 0.349 | 0.264 | 0.216 | 0.237 | 0.242 | 0.229 | 0.224 | 0.238 | 0.236 | 0.757 | 0.651 | 0.653 | 0.497 | 0.395 | 1 | 0.836 | 0.643 | 0.556 | 0.394
12 | LXF-289 | 0.615 | 0.586 | 0.591 | 0.549 | 0.565 | 0.951 | 0.699 | 0.709 | 0.6 | 0.293 | 0.998 | 0.966 | 0.858 | 0.825 | 0.824 | 0.985 | 0.943 | 1 | 0.894 | 0.771
13 | NCI-H596 | – | – | – | – | – | 0.725 | 0.627 | 0.606 | 0.398 | 0.506 | 1.05 | 0.857 | 0.619 | 0.569 | 0.53 | 0.982 | 0.964 | 0.918 | 0.724 | 0.587
14 | NCI-H1299 | – | – | – | – | – | – | – | – | – | – | 1.06 | 1.04 | 1 | 0.947 | 0.979 | 1.04 | 0.937 | 0.958 | 0.836 | 0.832
15 | NCI-H1563 | – | – | – | – | – | 0.725 | 0.777 | 0.721 | 0.641 | 0.62 | 1.03 | 1.04 | 0.879 | 0.82 | 0.87 | 0.992 | 1.02 | 0.876 | 0.935 | 0.794
16 | NCI-H1648 | 0.253 | 0.304 | 0.279 | 0.285 | 0.45 | 0.268 | 0.258 | 0.271 | 0.307 | 0.259 | – | – | – | – | – | 1.03 | 0.761 | 0.896 | 0.651 | 0.58
17 | NCI-H1703 | – | – | – | – | – | – | – | – | – | – | 0.343 | 0.247 | 0.325 | 0.267 | 0.294 | 0.853 | 0.75 | 0.287 | 0.33 | 0.344
18 | NCI-H1792 | 0.642 | 0.621 | 0.522 | 0.512 | 0.479 | 0.9 | 0.76 | 0.548 | 0.32 | 0.357 | – | – | – | – | – | 0.952 | 0.715 | 0.706 | 0.25 | 0.238
